Experimental data: patent publication US20060241114A1, “Derivatives of azasugars as anticancer agents” (priority 2003, published 2006)

Assays:
[1] = system: MCF7 (breast adenocarcinoma); test: In vitro growth inhibition screen (sulphorhodamine B), MCF7; type: cell-based, human; conditions: MCF7 cells, incubated for 48 hours, sulphorhodamine B dye; read-out: GI50 (concentration which inhibits the cell growth by 50%), MCF7 Breast adenocarcinoma
Protocol: (§1) Each agent was tested over a broad concentration range (ten-fold dilutions starting from ≧100 μM to 10 nM) against 6 human cancer cell lines which was comprised of different tumor types. These are DU145 (prostate carcinoma), HT29 (colorectal adenocarcinoma), LOX (melanoma), MCF7 (breast adenocarcinoma), MCF7ADR (adriamycin resistant breast adenocarcinoma), and U251 (human glioblastoma). A standard compound doxorubicin was tested in each assay as a positive control. The cells were maintained in growing condition in RPMI 1640 medium containing 10% fetal calf serum and incubated at 37° C. under 5% CO2 atmosphere. All cell lines were inoculated onto a series of standard 96-well microtitre plate on day zero, followed by twenty four-hour incubation in the absence of test compound. The inoculation densities in the screen were as per Monk et al., (1991) J. Natl. Cancer Inst., 83, 757-766. All NCEs were dissolved in DMSO and diluted further in culture medium. An aliquot of each dilution was added to the growing cells in 96 well plates and incubated for 48 hours. After incubation, the assay was terminated by adding 50 μL of trichloroacetic acid (TCA) and incubating at 4° C. for 30 min. The precipitated cells were washed and stained with sulphorhodamine B dye for 30 min and the excess dye was washed off with acetic acid. Adsorbed dye was solubilised in Tris base (alkaline pH) and quantitated by measuring the OD at […] in ELISA READER. GI50 (concentration which inhibits the cell growth by 50%) was calculated according to Boyd and Paull, (1995) Drug Dev. Res., 34, 91-109.

[2] = system: U251 (human glioblastoma); test: In vitro growth inhibition screen (sulphorhodamine B), U251; type: cell-based; conditions: U251 cells, incubated for 48 hours, sulphorhodamine B dye; read-out: GI50 (concentration which inhibits the cell growth by 50%), U251 Human glioblastoma astrocytoma
Protocol: as §1

[3] = system: DU145 (prostate carcinoma); test: In vitro growth inhibition screen (sulphorhodamine B), DU145; type: cell-based, human; conditions: DU145 cells, incubated for 48 hours, sulphorhodamine B dye; read-out: GI50 (concentration which inhibits the cell growth by 50%), DU145 Prostate carcinoma
Protocol: as §1

[4] = system: MCF7ADR (adriamycin resistant breast adenocarcinoma); test: In vitro growth inhibition screen (sulphorhodamine B), MCF7ADR; type: cell-based, human; conditions: MCF7ADR cells, incubated for 48 hours, sulphorhodamine B dye; read-out: GI50 (concentration which inhibits the cell growth by 50%), MCF7ADR Adriamycin Resistant Breast adenocarcinoma
Protocol: as §1

[5] = system: HT29 (colorectal adenocarcinoma); test: In vitro growth inhibition screen (sulphorhodamine B), HT29; type: cell-based, human; conditions: HT29 cells, incubated for 48 hours, sulphorhodamine B dye; read-out: GI50 (concentration which inhibits the cell growth by 50%), HT29 Colorectal adenocarcinoma
Protocol: as §1

LOX (melanoma) = test: In vitro growth inhibition screen (sulphorhodamine B), LOX; type: cell-based, human; conditions: LOX cells, incubated for 48 hours, sulphorhodamine B dye; read-out: GI50 (concentration which inhibits the cell growth by 50%), LOX Melanoma
Protocol: as §1

## CCCN1C(=O)C(OCc2ccccc2)C(OCc2ccccc2)C(OCc2ccccc2)C1CNC(=O)Nc1ccc([N+](=O)[O-])cc1 [Compound No. 5, 2,3,4-Tri-O-benzyl-6-N-{[p-nitrophenyl]aminocarbonylamino}-N-propyl-D-gluco-δ-lactam]
[1]
  GI50: 11.4 µM
[2]
  GI50: 46.9 µM
[3]
  GI50: 29.6 µM
[4]
  GI50: 33.9 µM
[5]
  GI50: 14.6 µM
LOX (melanoma)
  GI50: 10.4 µM

## CCCN1C(=O)[C@H](O)[C@@H](O)[C@H](O)[C@H]1CNC(=O)Nc1ccccc1 [Compound No. 24, N-Propyl-6-N-{[phenyl]aminocarbonylamino}-D-gluco-δ-lactam]
[1]
  GI50: 157 µM
[2]
  GI50: 231 µM
[3]
  GI50: 296 µM
[4]
  GI50: 262 µM
[5]
  GI50: 213 µM
LOX (melanoma)
  GI50: 169 µM

## CCCN1C(=O)[C@H](OCc2ccccc2)[C@@H](OCc2ccccc2)[C@H](OCc2ccccc2)[C@H]1COc1nc(Cl)nc(Cl)n1 [Compound No. 90, 2,3,4-Tri-O-benzyl-6-O-(4,6-dichloro-1,3,5-triazin-1-yl)-N-propyl-D-gluco-δ-lactam]
[1]
  GI50: 35.4 µM
[2]
  GI50: 52.8 µM
[3]
  GI50: 16.7 µM
[4]
  GI50: 18.7 µM
[5]
  GI50: 37.1 µM
LOX (melanoma)
  GI50: 14.4 µM

## CCCN1C(=O)[C@H](OCc2ccccc2)[C@@H](OCc2ccccc2)[C@H](OCc2ccccc2)[C@H]1CNC(=O)CN1CCN(c2cccc(C(F)(F)F)c2)CC1 [Compound No. 65, 2,3,4-Tri-O-benzyl-6-N-{2-[4-(3-(trifluoromethyl)phenyl)piperazin-1-yl]acetyl}-N-propyl-D-gluco-δ-lactam]
[1]
  GI50: 2 µM
[2]
  GI50: 3.4 µM
[3]
  GI50: 13.1 µM
[4]
  GI50: 3.5 µM
[5]
  GI50: 5.6 µM
LOX (melanoma)
  GI50: 4 µM

## CCCN1C(=O)[C@H](OCc2ccccc2)[C@@H](OCc2ccccc2)[C@H](OCc2ccccc2)[C@H]1CNC(=S)Nc1ccccc1 [Compound No. 9, 2,3,4-Tri-O-benzyl-6-N-{[phenyl]aminothiocarbonylamino}-N-propyl-D-gluco-δ-lactam]
[1]
  GI50: 35.8 µM
[2]
  GI50: 20.2 µM
[3]
  GI50: 22.1 µM
[4]
  GI50: 13.9 µM
[5]
  GI50: 40 µM
LOX (melanoma)
  GI50: 6.9 µM

## CCCN1C(=O)[C@H](OCc2ccccc2)[C@@H](OCc2ccccc2)[C@H](OCc2ccccc2)[C@H]1CNC(=S)Nc1ccc(Cl)cc1 [Compound No. 21, 2,3,4-Tri-O-benzyl-6-N-{[4-chlorophenyl]aminothiocarbonylamino}-N-propyl-D-gluco-δ-lactam]
[1]
  GI50: 2.4 µM
[2]
  GI50: 3.6 µM
[3]
  GI50: 6.5 µM
[4]
  GI50: 3.4 µM
[5]
  GI50: 2 µM
LOX (melanoma)
  GI50: 2.9 µM

## CCCN1C(=O)C(OCc2ccccc2)C(OCc2ccccc2)C(OCc2ccccc2)C1CNC(=O)Nc1ccc(OC)cc1 [Compound No. 4, 2,3,4-Tri-O-benzyl-6-N-{[p-methoxyphenyl]aminocarbonylamino}-N-propyl-D-gluco-δ-lactam]
[1]
  GI50: 13.6 µM
[2]
  GI50: 16.8 µM
[3]
  GI50: 116 µM
[4]
  GI50: 115 µM
[5]
  GI50: 49.4 µM
LOX (melanoma)
  GI50: 112 µM

## N-Allyl-2,3,4-tri-O-benzyl-1,5-dideoxy-1,5-imino-D-glucitol [Compound No. 71]
[1]
  GI50: 5.4 µM
[2]
  GI50: 8.3 µM
[3]
  GI50: 14.5 µM
[4]
  GI50: 9.2 µM
[5]
  GI50: 3.5 µM
LOX (melanoma)
  GI50: 9.5 µM

## C=CCN1C(=O)C(OCc2ccccc2)C(OCc2ccccc2)C(OCc2ccccc2)C1COC(=O)Nc1ccc(Cl)cc1 [Compound No. 41, N-Allyl-6-O-(4-chlorophenylcarbamate)-2,3,4-tri-O-benzyl-D-gluco-δ-lactam]
[1]
  GI50: 109 µM
[2]
  GI50: > 664 µM
[3]
  GI50: 142 µM
[4]
  GI50: > 664 µM
[5]
  GI50: 71.2 µM
LOX (melanoma)
  GI50: > 664 µM

## CCCN1C(=O)[C@H](O)[C@@H](O)[C@H](O)[C@H]1CNC(=O)Cn1cncn1 [Compound No. 66, N-Propyl-6-{2-[triazolyl]-acetyl}-D-gluco-δ-lactam]
[1]
  GI50: 124 µM
[2]
  GI50: 142 µM
[3]
  GI50: 82.9 µM
[4]
  GI50: 196 µM
[5]
  GI50: 149 µM
LOX (melanoma)
  GI50: 58.2 µM

## CCCN1C(=O)[C@H](OCc2ccccc2)[C@@H](OCc2ccccc2)[C@H](OCc2ccccc2)[C@H]1CNC(=O)C12CC3CC(CC(C3)C1)C2 [Compound No. 48, 2,3,4-Tri-O-benzyl-6-(adamantanecarboxamido}-N-propyl-D-gluco-δ-lactam]
[1]
  GI50: 18.8 µM
[2]
  GI50: 12.9 µM
[3]
  GI50: 104 µM
[4]
  GI50: 58.4 µM
[5]
  GI50: 67.9 µM
LOX (melanoma)
  GI50: 31.8 µM

## CCCN1C(=O)[C@H](OCc2ccccc2)[C@@H](OCc2ccccc2)[C@H](OCc2ccccc2)[C@H]1CNC(=O)Cn1ncn(-c2ccc(N3CCN(c4ccc(Cl)cc4)CC3)cc2)c1=O [Compound No. 60, 2,3,4-Tri-O-benzyl-6-N-{2-[(4-(4-(chlorophenyl)-piperazin-1-yl)-phenyl)-3(2H,4H)-1,2,4-triazol-3-onyl]acetyl}-H-propyl-D-gluco-δ-lactam]
[1]
  GI50: 101 µM
[2]
  GI50: 190 µM
[3]
  GI50: 108 µM
[4]
  GI50: 281 µM
[5]
  GI50: 258 µM
LOX (melanoma)
  GI50: 158 µM

## C=CCN1C(=O)[C@H](OCc2ccccc2)[C@@H](OCc2ccccc2)[C@H](OCc2ccccc2)[C@H]1COC(=S)Nc1ccc2ccccc2c1 [Compound No. 42, N-Allyl-2,3,4-Tri-O-benzyl-6-(2-naphthylithiocarbamate)-D-gluco-δ-lactam]
[1]
  GI50: 232 µM
[2]
  GI50: > 373 µM
[3]
  GI50: 175 µM
[4]
  GI50: > 373 µM
[5]
  GI50: 103 µM
LOX (melanoma)
  GI50: > 373 µM

## CCCN1C(=O)[C@H](O[Si](C)(C)C)[C@@H](O[Si](C)(C)C)[C@H](O[Si](C)(C)C)[C@H]1CNC(=O)Nc1ccccc1 [Compound No. 35, 2,3,4-Tri-O-trimethylsilyl-6-N-{[phenyl]aminocarbonylamino}-N-propyl-D-gluco-δ-lactam]
[1]
  GI50: 7.6 µM
[2]
  GI50: 5.8 µM
[3]
  GI50: 14 µM
[4]
  GI50: 9.3 µM
[5]
  GI50: 19.4 µM
LOX (melanoma)
  GI50: 8 µM

## CCCN1C(=O)[C@H](O)[C@@H](O)[C@H](O)[C@H]1CNC(=O)Nc1ccc(F)cc1F [Compound No. 49, 6-N-{[2,4Difluorophenyl]aminocarbonylamino}-N-propyl-D-gluco-δ-lactam]
[1]
  GI50: 177 µM
[2]
  GI50: 122 µM
[3]
  GI50: 352 µM
[4]
  GI50: 251 µM
[5]
  GI50: 131 µM
LOX (melanoma)
  GI50: 133 µM

## CCCN1C(=O)[C@H](O)[C@@H](O)[C@H](O)[C@H]1CNC(=O)Nc1ccc(F)cc1 [Compound No. 29, 6-N-{[4-Fluorophenyl]aminocarbonylamino}-N-propyl-D-gluco-δ-lactam]
[1]
  GI50: 85.8 µM
[2]
  GI50: 87 µM
[3]
  GI50: 280 µM
[4]
  GI50: 165 µM
[5]
  GI50: 58.6 µM
LOX (melanoma)
  GI50: 290 µM

## C=CCN1C(=O)[C@H](OCc2ccccc2)[C@@H](OCc2ccccc2)[C@H](OCc2ccccc2)[C@H]1COC(=O)c1cccs1 [Compound No. 45]
[1]
  GI50: 397 µM
[2]
  GI50: > 419 µM
[3]
  GI50: 148 µM
[4]
  GI50: > 419 µM
[5]
  GI50: 92.9 µM
LOX (melanoma)
  GI50: > 419 µM

## CCCN1C(=O)C(OC(C)=O)C(OC(C)=O)C(OC(C)=O)C1CNC(=O)Nc1ccc(F)cc1 [Compound No. 34, 2,3,4-Tri-O-acetyl-6-N-{[4-fluorophenyl]aminocarbonylamino}-N-propyl-D-gluco-δ-lactam]
[1]
  GI50: 26.1 µM
[2]
  GI50: 28.3 µM
[3]
  GI50: 78.2 µM
[4]
  GI50: 63.4 µM
[5]
  GI50: 38.4 µM
LOX (melanoma)
  GI50: 130 µM

## CCCN1C(=O)C(OCc2ccccc2)C(OCc2ccccc2)C(OCc2ccccc2)C1CNC(=O)Nc1ccc(Cl)cc1Cl [Compound No. 19, 2,3,4-Tri-O-benzyl-6-N-{[2,4-dichlorophenyl]aminocarbonylamino}-N-propyl-D-gluco-δ-lactam]
[1]
  GI50: > 592 µM
[2]
  GI50: > 592 µM
[3]
  GI50: > 592 µM
[4]
  GI50: > 592 µM
[5]
  GI50: > 592 µM
LOX (melanoma)
  GI50: 81.8 µM

## C=CCN1C[C@H](OCc2ccccc2)[C@@H](OCc2ccccc2)[C@H](OCc2ccccc2)[C@H]1CN1CCOCC1 [Compound No. 85, N-Allyl-2,3,4-tri-O-benzyl-1,5-dideoxy-1,5-imino-6-morpholino glucitol]
[1]
  GI50: 7.2 µM
[2]
  GI50: 25.9 µM
[3]
  GI50: 43.5 µM
[4]
  GI50: 40.3 µM
[5]
  GI50: 11.3 µM
LOX (melanoma)
  GI50: 27.3 µM
